Results on 3 compounds are retold here after article PMC2001825, “Pharmacokinetics of ethylenediaminemalonatoplatinum(II) (JM-40) during phase I trial” (British Journal of Cancer, 1987).

“And” between values parts separate entries of the source, which are not always exact repeats. Identical values can stand only once.

For data set [1] the following is noted: human, in vivo. The source says: Br. J. Cancer (1987), 56, 479-483 ? The Macmillan Press Ltd., 1987 Pharmacokinetics of ethylenediaminemalonatoplatinum(II) (JM-40) during phase I trial F. Elferink1, W.J.F. van der Vijgh1, W.W. ten Bokkel Huinink2, J.B. Vermorken', I. Klein1, B. Winograd', M.K.T. Knobf', G. Simonetti2, H.E. Gall', J.G. McVie2 & H.M. Pinedo' 1Department of Oncology, Free University Hospital, De Boelelaan 1117, 1081 HV Amsterdam; and 2Netherlands Cancer Institute, Antoni van Leeuwenhoek Hospital, Plesmanlaan 121, 1066 CX Amsterdam, The Netherlands. […] The drug was administered intravenously by short-term (10-60min) infusion. Doses ranged from 20 to 1,200 mgm-2. JM-40 was determined in plasma ultrafiltrate and urine by HPLC. Platinum (Pt) concentrations were determined in plasma, plasma ultrafiltrate, urine and red blood cells by atomic absorption spectrometry up to 5 days after administration of the drug. Ultrafilterable Pt could be determined up to 45 days after the infusion in one patient sampled over such a long period. […] During the first 6h 27+9% of the administered dose was excreted as JM-40. Cumulative platinum excretion in the urine amounted to 29+ 13%, 42+ 14% and 60+13% over the first 6h, 24h and 5 days, respectively. The uptake of platinum in red blood cells was limited, comprising only 0.24+0.12% of the administered dose. […] In particular the low emetogenic potential as determined in the ferret (Schurig et al., 1984) and the limited nephrotoxicity observed in dogs (Lelieveld et al., 1984) were reasons to conduct a phase I trial. […] Investigation of the pharmacokinetics during phase I clinical trials is important because it may help to design an optimal therapeutic regimen in phase II trials (Kovach, 1983). In the case of an analogue, pharmacokinetics can be compared with that of the parent compound. Furthermore, when preclinical information on animal pharmacokinetics is available human pharmacokinetics at low doses of the phase I trial may aid in escalating the dose as quickly and safely as possible (Collins et al., 1986, Van Hennik et al. 1987). Thus, clinical pharmacokinetics of JM-40 and platinum were investigated in plasma, plasma ultrafiltrate, urine and red blood cells. Figure 1 Structural platinum(II) (JM-40). formula of ethylenediaminemalonato- Patients and methods Patients and materials Pharmacokinetic studies were performed in 19 patients who received 28 cycles of JM-40 within a dose range of 20- 1,200mgm-2. The median age of the patients (6 females, 13 males) was 57 yrs (range 37-74 yrs). […] Renal function was decreased (creatinine clearance <60mlmin-1) at the start of only 3 treatment cycles. […] JM-40 was supplied by Johnson Matthey, Reading, Berkshire, UK. […]

The test system of the next data set is plasma proteins. Set-up: method as in Van der Vijgh et al., 1986. As to conditions: ref Van der Vijgh et al., 1986; cited from earlier work.
On the set-up of data set [2]: method as in Schurig et al., 1984. As to conditions: ferret, preclinical; ref Schurig et al., 1984; cited from earlier work.
On the set-up of data set [3]: method as in Lelieveld et al., 1984. Particulars: dogs, preclinical; ref Lelieveld et al., 1984; cited from earlier work.
The conditions of data set [4]: cited from earlier work.
The conditions of data set [5]: after cis-platin, ref Vermorken et al., cited from earlier work.

As for “ethylenediaminemalonatoplatinum(II) [JM-40]”, in data set [1], the “cumulative urinary excretion after 24 h, as Pt” value is listed as 42+14%; the “dose m-2 vs AUC relation” value is listed as “linear pharmacokinetics”; the “half-life of Pt in RBCs over day 1-5” value is listed as 14 + 3 days; the “time of maximum Pt levels in RBCs after start of infusion” value was 2 to 8 h. Also, the “in vitro rate constant of plasma protein binding (k in vitro of free Pt)” value in the data set on plasma proteins is 0.002 min⁻¹ and 0.0020 min⁻¹. In addition, the emetogenic potential entry in data set [2] is on record as “low”. For the same compound, the nephrotoxicity result in data set [3] is on record as “limited”. Also, the maximum tolerable dose in data set [4] (in vivo) is recorded as 1,200 mg m-2.
As to `N.N.[Cl][Pt][Cl]` [cis-platin, cis-diammine-dichloroplatinum(II)], the “CUE 0-6h of free Pt” value in data set [5] (1984b) is on record as 24+5 %D. In addition, the “CUE 0-24h of free Pt” value in data set [5] (1986) is on record as 28+4 %D.
For `N.N.O=C([O-])C1(C(=O)[O-])CCC1.[Pt+2]` [carboplatin, diammine( 1, l-cyclobutanedicarboxylato)platinum(II), reference compound], in data set [4] (ref Joss et al., 1984), the dose limiting toxicity entry is “myelotoxicity”.
